Experimental findings from patent US10759787B2, “Benzofuran derivative, preparation method thereof and use thereof in medicine” (Jiangsu Hengrui Medicine Co., Ltd., priority 2015, dated 2020) are described below.

Each structure is given as a SMILES string.

One data set deals with EZH2-Y641F (Homo sapiens (Human), UniProt Q15910, Y641F). Put plainly: EZH2-Y641F mutant enzyme activity assay (HTRF). Conditions: read-out: IC50 for inhibiting the activity of enzyme EZH2-Y641F. Type of data set: biochemical. The procedure: (§1) Histone H3 biotin labeling and S-adenosyl methionine were respectively diluted to 50 nM and 50 μM with a kinase buffer, then added to a 384-well plate at 4 μl/well. The test compound was diluted with a kinase buffer (it was diluted from the highest concentration 30 μM in 10 fold concentration gradient to 7 concentration points), then added to the 384-well microtiter plate at 4 μl/well. The plate was incubated at room temperature for 2 hours. Histone H3K27 Me3 monoclonal antibody and Streptavidin-XL665 were diluted to 30 nM and 500 nM by HTRF detection buffer, then added to the 384-well microplate at 10 µl/well and incubated for 1 hour. A well without an EZH2 enzyme and a compound was used as a negative control, and a well with an EZH2 enzyme but without a compound was used as a positive control. […] The compound logarithm concentration vs the inhibition percentage relative to the positive control well was plotted using GraphPad Prism, then the IC50 values were calculated.
EZH2-Y641F, sequence (Q15910 whole entry Y641F): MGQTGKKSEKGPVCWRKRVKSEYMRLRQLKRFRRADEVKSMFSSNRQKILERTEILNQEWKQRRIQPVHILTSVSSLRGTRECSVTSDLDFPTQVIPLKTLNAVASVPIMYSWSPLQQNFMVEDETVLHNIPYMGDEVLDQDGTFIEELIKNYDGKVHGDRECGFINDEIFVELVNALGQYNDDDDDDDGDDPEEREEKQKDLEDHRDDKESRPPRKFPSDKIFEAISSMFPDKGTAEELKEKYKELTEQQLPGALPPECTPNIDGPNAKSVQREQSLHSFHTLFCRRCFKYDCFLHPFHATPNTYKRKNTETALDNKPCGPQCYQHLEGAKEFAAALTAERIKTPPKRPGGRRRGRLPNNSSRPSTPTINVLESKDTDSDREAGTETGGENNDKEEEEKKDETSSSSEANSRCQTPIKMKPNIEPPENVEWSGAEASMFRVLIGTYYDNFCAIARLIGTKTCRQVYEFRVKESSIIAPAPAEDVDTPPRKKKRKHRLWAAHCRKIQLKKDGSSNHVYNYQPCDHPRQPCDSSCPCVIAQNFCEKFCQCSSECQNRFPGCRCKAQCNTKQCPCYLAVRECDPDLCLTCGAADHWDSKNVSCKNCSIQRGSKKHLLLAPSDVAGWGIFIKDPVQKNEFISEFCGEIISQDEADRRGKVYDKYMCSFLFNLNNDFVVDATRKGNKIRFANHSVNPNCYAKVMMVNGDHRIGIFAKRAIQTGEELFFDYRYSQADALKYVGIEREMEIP
EZH2-Y641F, sequence (O75530 whole entry partner): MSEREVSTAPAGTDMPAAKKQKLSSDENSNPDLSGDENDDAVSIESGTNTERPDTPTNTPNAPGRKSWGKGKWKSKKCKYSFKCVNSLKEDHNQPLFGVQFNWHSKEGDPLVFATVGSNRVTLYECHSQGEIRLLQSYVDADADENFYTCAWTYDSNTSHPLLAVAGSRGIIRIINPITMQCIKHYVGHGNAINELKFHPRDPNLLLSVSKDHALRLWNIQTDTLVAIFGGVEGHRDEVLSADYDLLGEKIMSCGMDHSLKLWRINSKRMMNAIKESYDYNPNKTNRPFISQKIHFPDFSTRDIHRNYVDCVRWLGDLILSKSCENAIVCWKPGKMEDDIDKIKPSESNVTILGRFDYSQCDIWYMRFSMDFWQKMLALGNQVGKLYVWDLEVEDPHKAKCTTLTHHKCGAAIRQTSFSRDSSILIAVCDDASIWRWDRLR
EZH2-Y641F, sequence (Q15022 whole entry partner): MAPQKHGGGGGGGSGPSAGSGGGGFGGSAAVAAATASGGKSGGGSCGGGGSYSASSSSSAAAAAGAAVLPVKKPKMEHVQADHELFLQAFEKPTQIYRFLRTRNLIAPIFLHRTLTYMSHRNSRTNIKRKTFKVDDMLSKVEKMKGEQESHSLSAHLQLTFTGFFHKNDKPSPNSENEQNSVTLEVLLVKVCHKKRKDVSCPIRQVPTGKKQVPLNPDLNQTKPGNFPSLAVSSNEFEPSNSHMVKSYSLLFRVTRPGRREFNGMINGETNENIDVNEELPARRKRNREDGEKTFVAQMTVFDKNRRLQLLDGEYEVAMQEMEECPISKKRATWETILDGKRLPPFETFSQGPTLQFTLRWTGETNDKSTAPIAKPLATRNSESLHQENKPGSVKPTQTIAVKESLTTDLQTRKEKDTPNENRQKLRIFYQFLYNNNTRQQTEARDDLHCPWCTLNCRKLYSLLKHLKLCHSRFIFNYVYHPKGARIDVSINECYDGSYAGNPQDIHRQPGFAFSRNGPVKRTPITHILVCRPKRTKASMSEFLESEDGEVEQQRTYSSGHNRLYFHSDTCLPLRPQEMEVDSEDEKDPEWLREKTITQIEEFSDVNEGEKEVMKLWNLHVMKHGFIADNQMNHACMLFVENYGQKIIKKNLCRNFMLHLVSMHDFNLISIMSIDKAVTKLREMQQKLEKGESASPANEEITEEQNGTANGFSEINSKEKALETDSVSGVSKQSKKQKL
EZH2-Y641F, sequence (Q09028 whole entry partner): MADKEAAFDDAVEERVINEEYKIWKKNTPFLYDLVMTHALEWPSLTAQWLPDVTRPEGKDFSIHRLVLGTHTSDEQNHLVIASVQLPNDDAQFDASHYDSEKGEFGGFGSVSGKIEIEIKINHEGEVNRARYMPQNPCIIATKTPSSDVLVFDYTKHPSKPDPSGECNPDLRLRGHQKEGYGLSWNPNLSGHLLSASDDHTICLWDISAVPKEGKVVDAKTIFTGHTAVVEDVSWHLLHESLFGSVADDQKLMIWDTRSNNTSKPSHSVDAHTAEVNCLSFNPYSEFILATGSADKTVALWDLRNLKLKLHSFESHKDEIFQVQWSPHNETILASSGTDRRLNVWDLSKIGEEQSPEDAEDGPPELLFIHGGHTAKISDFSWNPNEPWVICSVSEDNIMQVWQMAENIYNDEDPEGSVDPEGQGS
EZH2-Y641F, sequence (Q6ZN18 whole entry partner): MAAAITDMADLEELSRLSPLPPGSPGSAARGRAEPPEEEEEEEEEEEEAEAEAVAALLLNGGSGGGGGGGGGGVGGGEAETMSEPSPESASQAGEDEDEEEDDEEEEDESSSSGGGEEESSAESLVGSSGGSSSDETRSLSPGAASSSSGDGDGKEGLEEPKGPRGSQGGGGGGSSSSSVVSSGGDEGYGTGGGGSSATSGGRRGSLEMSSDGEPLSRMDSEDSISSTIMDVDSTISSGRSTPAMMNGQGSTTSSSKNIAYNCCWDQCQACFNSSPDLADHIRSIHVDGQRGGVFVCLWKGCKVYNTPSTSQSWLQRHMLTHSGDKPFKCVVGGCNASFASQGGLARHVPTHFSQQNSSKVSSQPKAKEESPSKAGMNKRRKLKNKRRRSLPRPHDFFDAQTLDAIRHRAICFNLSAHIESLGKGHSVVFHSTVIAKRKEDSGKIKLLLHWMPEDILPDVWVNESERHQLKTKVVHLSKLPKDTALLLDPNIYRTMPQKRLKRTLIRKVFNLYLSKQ
In general terms: Time-resolved FRET reads energy transfer from a long-lived donor to a nearby acceptor.

In the next data set the test system is Pfeiffer cells. Put plainly: In vitro anti-tumor cell growth assay (CellTiter-Glo), Pfeiffer. Type of data set: cell-based. Conditions: Homo sapiens, 120 h; Pfeiffer cells (A677G mutant), 5 days; read-out: IC50 for inhibiting the growth activity of tumor cells (Pfeiffer) in vitro. As to the method:
(§2) Test Example 2. Assay for Determining In Vitro Anti-Tumor Cell Growth Activity of the Example Compounds of the Present Invention
(§3) This method was used to determinate the inhibitory effect of the compounds of the present invention on the growth activity of tumor cells (Pfeiffer or WSU-DLCL2) in vitro. Pfeiffer cells carry A677G mutant, and WSU-DLCL2 cells carry Y641F mutant.
(§4) The lymphoma suspension cell line (Pfeiffer or WSU-DLCL2) was cultured in a RPMI-1640 medium containing 10% inactivated Fetal Bovine Serum, 100 U/mL penicillin, and 100 μg/mL streptomycin, and incubated in an incubator with 5% carbon dioxide at 37° C. under a saturated humidity condition, and passaged every 3-4 days.
(§5) A cell sudpension was prepared with a fresh cell medium, added to a 96-well cell culture plate at 8000 cells/well (Pfeiffer) or 2000 cells/well (WSU-DLCL2), and incubated in 5% carbon dioxide at 37° C. incubator overnight. On the day of the experiment, the EZH2 test compounds (final concentration: 20000, 2000, 200, 20, 2, 0.2 nM) were added into the experimental wells for 3 parallel wells per group. A control well with the medium alone but without cells was set up to obtain the background luminescent value. The cell culture plate was incubated in an incubator with 5% carbon dioxide at 37° C. for 5 days.
(§6) After the compounds were applied to the cells for 5 days, the cell culture plate was placed at room temperature for 30 minutes, then a CellTiter-Glo reagent equal to the volume of cell culture medium was added to each well. The contents were mixed on a shaker for 10 minutes, and the […] signal values were recorded. The cell growth inhibition rate was calculated, and the formula was: cell growth inhibiton rate=[(negative control control−experimental group)/(negative control group−background luminescent value)]×100%. The IC50 values (half inhibition rate IC50, i.e., a drug concentration that is required for 50% cell growth inhibition rate) were calculated by software from the cell growth inhibiton rate and the corresponding concentration.
For orientation: In ATP-based viability assays light output follows the ATP content of the culture.

Data set [1] in a line: Pharmacokinetics assay in SD rats after intragastrical administration. Type of data set: in vivo. Conditions: both sexes, Sprague-Dawley, rat, plasma, po, 5 mg/kg. The procedure: Test Example 3. Pharmacokinetics Assay of the Compounds of Examples 1, 2, 3 and 9 of the Present Invention
SD rats were used as test animals. The drug concentration in plasma at different time points was determined by LC/MS/MS after intragastrical administration of the compounds of Examples 1, 2, 3 and 9 to the rats. The pharmacokinetic behavior of the compounds of the present invention was studied and evaluated in rats.
16 healthy adult Sprague-Dawley (SD) rats, half male and half female, were purchased from SINO-BRITSH SIPPR/BK LAB. ANIMAL LTD., CO, with Certificate No.: SCXK (Shanghai) 2008-0016.
The appropriate amount of each compound was weighed, and added with 0.5% CMC-Na (containing 1% Tween 80) to prepare a 1.0 mg/mL suspension by grinding.
After an overnight fast, 16 SD rats were divided into 4 groups equally, half male and half female, and administered intragastrically the test compounds at an administration volume of 5 mL/kg.
Blood (0.2 mL) was taken from the orbital sinus before administration and at 0.5, 1.0, 2.0, 4.0, 6.0, 8.0, 11.0, and 24.0 hours after administration. The samples were stored in heparinized tubes, and centrifuged for 10 minutes at 3,500 rpm to separate the blood plasma. The plasma samples were stored at −20° C.
The plasma concentration of the test compounds in rat plasma after intragastric administration was determined by LC-MS/MS.
Pharmacokinetic parameters of the compounds of Examples 1, 2, 3 and 9 of the present invention are shown below: […]

A further data set deals with WSU-DLCL2 cells. Description: In vitro anti-tumor cell growth assay (CellTiter-Glo), WSU-DLCL2. Conditions: Homo sapiens, WSUDLCL2, 120 h; WSU-DLCL2 cells (Y641F mutant), 5 days; read-out: IC50 for inhibiting the growth activity of tumor cells (WSU-DLCL2) in vitro. Type of data set: cell-based. The procedure:
as §2, §3, §4, §5, §6

Another data set addresses EZH2-A677G (Homo sapiens (Human), UniProt Q15910, A677G). Description: EZH2-A677G mutant enzyme activity assay (HTRF). Conditions: read-out: IC50 for inhibiting the activity of enzyme EZH2-A677G. Type of data set: biochemical. The procedure:
as §1

EZH2-A677G, sequence (Q15910 whole entry A677G): as the sequence (Q15910 whole entry Y641F) above, with F641Y, A677G counted along it
EZH2-A677G, sequence (O75530 whole entry partner): as the sequence (O75530 whole entry partner) above
EZH2-A677G, sequence (Q15022 whole entry partner): as the sequence (Q15022 whole entry partner) above
EZH2-A677G, sequence (Q09028 whole entry partner): as the sequence (Q09028 whole entry partner) above
EZH2-A677G, sequence (Q6ZN18 whole entry partner): as the sequence (Q6ZN18 whole entry partner) above

With `CCc1c(N(CC)C2CCOCC2)cc2oc(C3CCN(C(C)C)CC3)cc2c1C(=O)NCc1c(C)cc(C)[nH]c1=O` [Example 9, N-((4,6-Dimethyl-2-oxo-1,2-dihydropyridin-3-yl)methyl)-5-ethyl-6-(ethyl(tetrahydro-2H-pyran-4-yl)amino)-2-(1-isopropylpiperidin-4-yl)benzofuran-4-carboxamide], the concentration for half-maximal inhibition (IC50) (commonly the midpoint of a concentration-inhibition curve) at EZH2-Y641F was 4 nM; in the data set on Pfeiffer cells, 7 nM; in the data set with WSU-DLCL2 cells, 55 nM; at EZH2-A677G, 5.7 nM. Further, the Vd/F in data set [1] (read-out: Apparent Distribution Volume Vz/F) was found to be 35.1 ± 37.1 L/kg. For the same compound, in data set [1] (read-out: Area Under Curve AUC), the AUC (as a rule, the area under the concentration-time curve, a measure of exposure) was found to be 274 ± 180 ng·h/mL. For the same compound, the CL/F in data set [1] (read-out: Clearance CL/F) came out at 562 ± 592 mL/min/kg. Also, in data set [1] (read-out: Half-Life t1/2 (converted)), the half-life is 0.719 ± 0.15 h. The MRT (as a rule, a mean duration of stay, worked out from the concentration-time curve) in data set [1] (read-out: Mean Residence Time MRT) came out at 3.48 ± 0.107 h. The peak concentration (Cmax) (usually the maximum level reached in the sampled fluid or tissue) in data set [1] (read-out: Plasma Conc. Cmax) turned out to be 79.1 ± 50.7 ng/mL.
As for `CCN(c1cc2oc(C)cc2c(C(=O)NCc2c(OC)cc(C)[nH]c2=O)c1C)C1CCOCC1` [Example 19, 6-(Ethyl(tetrahydro-2H-pyran-4-yl)amino)-N-((4-methoxy-6-methyl-2-oxo-1,2-dihydropyridin-3-yl)methyl)-2,5-dimethylbenzofuran-4-carboxamide], the IC50 amounted to 2.8 nM on EZH2-Y641F, 14 nM with Pfeiffer cells, 232 nM in the data set with WSU-DLCL2 cells and 2.9 nM at EZH2-A677G.
